Results: paper PMC406516 (BMC Clinical Pharmacology, 2004)
Blank lines part the entries; values can stand above or below the compound they belong to.

Columns and labels:
[1] = molecular target: in-process albumin (Octapharma, before addition of stabilisers and final heating) (Homo sapiens, UniProt P02768); assay: Drug binding by ultrafiltration in in-process albumin from Octapharma; conditions: mean (SD), 5 experiments
[2] = molecular target: albumin solutions from Baxter/Immuno, Octapharma, and Pharmacia & Upjohn (Homo sapiens, UniProt P02768)
albumin solutions from Baxter/Immuno, Octapharma, and Pharmacia & Upjohn, sequence (P02768 25-609): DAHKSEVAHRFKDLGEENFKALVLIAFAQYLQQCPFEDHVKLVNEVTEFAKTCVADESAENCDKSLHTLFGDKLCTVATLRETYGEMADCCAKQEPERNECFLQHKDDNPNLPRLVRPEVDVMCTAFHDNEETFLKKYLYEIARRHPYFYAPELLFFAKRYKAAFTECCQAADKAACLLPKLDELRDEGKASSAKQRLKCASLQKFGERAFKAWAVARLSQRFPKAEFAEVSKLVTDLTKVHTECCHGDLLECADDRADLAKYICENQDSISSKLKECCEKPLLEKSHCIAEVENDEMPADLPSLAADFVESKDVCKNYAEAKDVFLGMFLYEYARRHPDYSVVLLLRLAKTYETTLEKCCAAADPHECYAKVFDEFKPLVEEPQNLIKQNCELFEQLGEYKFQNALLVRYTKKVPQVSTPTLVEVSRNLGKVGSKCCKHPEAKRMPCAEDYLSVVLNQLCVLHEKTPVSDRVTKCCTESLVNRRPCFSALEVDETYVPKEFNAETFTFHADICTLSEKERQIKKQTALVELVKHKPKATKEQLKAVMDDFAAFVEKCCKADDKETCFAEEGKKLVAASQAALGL

albumin = conditions: cited from earlier work
Human serum = Human serum (Homo sapiens, UniProt P02768); assay: Drug binding by ultrafiltration in native human serum
Human serum, sequence (P02768 25-609): as above

[3] = molecular target: defatted human serum albumin (Sigma albumin) (Homo sapiens, UniProt P02768); assay: Drug binding by ultrafiltration in Sigma albumin solution; conditions: isolated protein, pH 7.4
defatted human serum albumin (Sigma albumin), sequence (P02768 25-609): as above

[4] = molecular target: Pharmaceutical-grade albumin Baxter/Immuno (Homo sapiens, UniProt P02768)
Pharmaceutical-grade albumin Baxter/Immuno, sequence (P02768 25-609): as above

[5] = molecular target: Pharmaceutical-grade albumin Pharmacia & Upjohn (Homo sapiens, UniProt P02768)
Pharmaceutical-grade albumin Pharmacia & Upjohn, sequence (P02768 25-609): as above

[6] = molecular target: Sigma albumin and native human serum (Homo sapiens, UniProt P02768); conditions: relative to K1 of naproxen; summary of Table 2
Sigma albumin and native human serum, sequence (P02768 25-609): as above

[7] = molecular target: Pharmaceutical-grade albumin Octapharma (Homo sapiens, UniProt P02768); assay: Drug binding by ultrafiltration in pharmaceutical-grade albumin from Octapharma; conditions: for n1 (specific binding sites): Final product
Pharmaceutical-grade albumin Octapharma, sequence (P02768 25-609): as above

[8] = human serum, Scatchard, mean (SD), 5 experiments
[9] = Baxter/Immuno albumin 0.615 mmol/L, Scatchard, mean (SD), 5 experiments
[10] = human, isolated protein, pH 7.4
[11] = Pharmacia & Upjohn albumin 0.615 mmol/L, Scatchard, mean (SD), 5 experiments
[12] = charcoal treated, mean (SD), 5 experiments
[13] = Octapharma albumin 0.615 mmol/L, Scatchard, mean (SD), 5 experiments

in-process albumin (Octapharma, before addition of stabilisers and final heating), sequence (P02768 25-609): as above

Structure (SMILES): C[C@H]1O[C@@H](O[C@H]2[C@@H](O)C[C@H](O[C@H]3[C@@H](O)C[C@H](O[C@H]4CC[C@@]5(C)[C@H](CC[C@@H]6[C@@H]5CC[C@]5(C)[C@@H](C7=CC(=O)OC7)CC[C@]65O)C4)O[C@@H]3C)O[C@@H]2C)C[C@H](O)[C@@H]1O [Digitoxin, digitoxin]
n1 (specific binding sites) ([1]; charcoal treated): 0.8 (0.03)
n1 (specific binding sites) ([1]; not charcoal treated): 0.8 (0.03)
free fraction higher than in native human serum and Sigma albumin ([2]; pharmaceutical-grade albumins versus native human serum and Sigma albumin): ~2 times
albumin-bound (albumin): more than 95%
Specific binding n1 (number of binding sites) (Human serum; [8]): 1.8 (0.5)
fraction unbound at 30 min (Human serum; human, serum, pH 7.4): 0.049
fraction unbound at 30 min [3]: 0.051
Specific binding n1 (number of binding sites) [4, 9]: 1.1 (0.1)
fraction unbound at 30 min [4, 10]: 0.111
Specific binding n1 (number of binding sites) [5, 11]: 1.4 (0.3)
fraction unbound at 30 min [5, 10]: 0.115
K1 higher than that of naproxen [6]: ~100 times
n1 (specific binding sites) [7, 12]: 1.3 (0.2)
n1 (specific binding sites) ([7]; not charcoal treated, mean (SD), 5 experiments): 1.1 (0.1)
Specific binding n1 (number of binding sites) [7, 13]: 0.9 (0.03)
fraction unbound at 30 min [7, 10]: 0.1

specific binding ([2]; albumin solutions from Baxter/Immuno, Octapharma, and Pharmacia & Upjohn): abolished
Non Specific binding n2 (number of binding sites) (Human serum; [8]): 3.9 (0.2)
Specific binding n1 (number of binding sites) (Human serum; [8]): 1.0 (0.1)
Non Specific binding n2 (number of binding sites) [4, 9]: 3.8 (0.2)
Non Specific binding n2 (number of binding sites) [5, 11]: 3.8 (0.3)
n1 (specific binding sites) [7, 12]: 1.1 (0.1)
n1 (specific binding sites) ([7]; charcoal treated, mean (SD), 5 experiments, listed as naproxen): 1.1 ± 0.1
Non Specific binding n2 (number of binding sites) [7, 13]: 4.0 (0.3)
Structure (SMILES): COc1ccc2cc([C@H](C)C(=O)O)ccc2c1 [Naproxen, naproxen]
